Reference: PubChem BioAssay (NCI)
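Following 48 hours of exposure in 96-well plates, responses at five concentrations were used to interpolate endpoints linearly. GI50: concentration for 50% inhibition of growth. At the TGI there is no net growth.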

Key:
Assay in all cases: NCI anticancer screen, dose series, 48 h
[1] = tested on: U251 CNS
[2] = tested on: MDA-MB-435
[3] = tested on: HOP-92 NSCLC
[4] = tested on: HL-60(TB) leukemia
[5] = tested on: M14 melanoma
[6] = tested on: SK-OV-3 ovarian
[7] = tested on: SNB-75 CNS
[8] = tested on: SN12C renal
[9] = tested on: MDA-MB-231 breast
[10] = tested on: SK-MEL-2 melanoma
[11] = tested on: 786-0 renal
[12] = tested on: RXF 393 renal
[13] = tested on: SK-MEL-5 melanoma
[14] = tested on: K-562 leukemia
[15] = tested on: OVCAR-5 ovarian
[16] = tested on: UACC-257 melanoma
[17] = tested on: HS 578T breast
[18] = tested on: MALME-3M melanoma
[19] = tested on: CCRF-CEM leukemia
[20] = tested on: CAKI-1 renal
[21] = tested on: HT29 colon
[22] = tested on: SW-620 colon
[23] = tested on: SF-268 CNS
[24] = tested on: HCT-116 colon
[25] = tested on: HOP-62 NSCLC
[26] = tested on: NCI-H460 lung
[27] = tested on: UO-31 renal
[28] = tested on: SNB-19 CNS
[29] = tested on: TK-10 renal
[30] = tested on: PC-3 prostate
[31] = tested on: NCI-H226 lung
[32] = tested on: RPMI-8226 leukemia
[33] = tested on: ACHN renal
[34] = tested on: T-47D breast
[35] = tested on: MOLT-4 leukemia
[36] = tested on: NCI-H522 lung
[37] = tested on: NCI/ADR-RES ovarian
[38] = tested on: SR leukemia
[39] = tested on: COLO 205 colon
[40] = tested on: IGROV1 ovarian
[41] = tested on: SF-295 CNS
[42] = tested on: UACC-62 melanoma
[43] = tested on: HCC-2998 colon
[44] = tested on: DU-145 prostate
[45] = tested on: BT-549 breast
[46] = tested on: KM12 colon
[47] = tested on: SF-539 CNS
[48] = tested on: EKVX NSCLC
[49] = tested on: HCT-15 colon
[50] = tested on: A549 NSCLC
[51] = tested on: LOX IMVI melanoma
[52] = tested on: A498 renal
[53] = tested on: MCF7 breast
[54] = tested on: SK-MEL-28 melanoma
[55] = tested on: NCI-H23 lung
[56] = tested on: OVCAR-4 ovarian

## CCOP(=O)(OCC)OC[C@]12CCC(C)(C)C=C1[C@H]1CC[C@@H]3[C@@]4(C)CC[C@H](OP(=O)(OCC)OCC)C(C)(C)[C@@H]4CC[C@@]3(C)[C@]1(C)CC2
[1]
  GI50: 1580 nM
  TGI: 3.17 µM
[2]
  GI50: 1590 nM
  TGI: 2990 nM
[3]
  GI50: 1160 nM
  TGI: 2530 nM
[4]
  GI50: 611 nM
  TGI: 3.02 µM
[5]
  GI50: 1660 nM
  TGI: 3.34 µM
[6]
  GI50: 1530 nM
  TGI: 2960 nM
[7]
  GI50: 1370 nM
  TGI: 2690 nM
[8]
  GI50: 1350 nM
  TGI: 2850 nM
[9]
  GI50: 1410 nM
  TGI: 3.04 µM
[10]
  GI50: 1670 nM
  TGI: 3.12 µM
[11]
  GI50: 1600 nM
  TGI: 3.08 µM
[12]
  GI50: 1520 nM
  TGI: 3.08 µM
[13]
  GI50: 1680 nM
  TGI: 3.07 µM
[14]
  GI50: 388 nM
  TGI: 3.13 µM
[15]
  GI50: 1480 nM
  TGI: 2860 nM
[16]
  GI50: 1560 nM
  TGI: 3.08 µM
[17]
  GI50: 1760 nM
  TGI: 4.22 µM
[18]
  GI50: 1540 nM
  TGI: 2960 nM
[19]
  GI50: 2300 nM
  TGI: 8.87 µM
[20]
  GI50: 970 nM
  TGI: 2180 nM
[21]
  GI50: 1360 nM
  TGI: 2780 nM
[22]
  GI50: 1640 nM
  TGI: 3.14 µM
[23]
  GI50: 1550 nM
  TGI: 3.02 µM
[24]
  GI50: 1540 nM
  TGI: 3.09 µM
[25]
  GI50: 1610 nM
  TGI: 3.14 µM
[26]
  GI50: 1670 nM
  TGI: 3.21 µM
[27]
  GI50: 1360 nM
  TGI: 2680 nM
[28]
  GI50: 1550 nM
  TGI: 3.04 µM
[29]
  GI50: 1580 nM
  TGI: 2980 nM
[30]
  GI50: 673 nM
  TGI: 2260 nM
[31]
  GI50: 1650 nM
  TGI: 3.6 µM
[32]
  GI50: 547 nM
  TGI: 3.43 µM
[33]
  GI50: 1630 nM
  TGI: 2980 nM
[34]
  GI50: 1530 nM
  TGI: 3.26 µM
[35]
  GI50: 1200 nM
  TGI: 3.66 µM
[36]
  GI50: 1640 nM
  TGI: 3.16 µM
[37]
  GI50: 1570 nM
  TGI: 3.29 µM
[38]
  GI50: 866 nM
  TGI: 5.56 µM
[39]
  GI50: 1650 nM
  TGI: 3.23 µM
[40]
  GI50: 1720 nM
  TGI: 3.26 µM
[41]
  GI50: 1410 nM
  TGI: 2770 nM
[42]
  GI50: 1110 nM
  TGI: 2490 nM
[43]
  GI50: 1390 nM
  TGI: 2920 nM
[44]
  GI50: 1670 nM
  TGI: 3.05 µM
[45]
  GI50: 1460 nM
  TGI: 2930 nM
[46]
  GI50: 1560 nM
  TGI: 2930 nM
[47]
  GI50: 1660 nM
  TGI: 3.12 µM
[48]
  GI50: 1480 nM
  TGI: 2910 nM
[49]
  GI50: 1430 nM
  TGI: 2870 nM
[50]
  GI50: 1530 nM
  TGI: 3.25 µM
[51]
  GI50: 1300 nM
  TGI: 2660 nM
[52]
  GI50: 1530 nM
  TGI: 2900 nM
[53]
  GI50: 1480 nM
  TGI: 3 µM
[54]
  GI50: 1540 nM
  TGI: 2910 nM
[55]
  GI50: 1190 nM
  TGI: 2810 nM
[56]
  GI50: 1910 nM
  TGI: 4.01 µM
